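The compound was tested at five concentrations on cells cultured in 96-well plates, with a 48-hour exposure period. Abbreviation: GI50, concentration required for 50% inhibition of growth. At the TGI there is no net growth.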
What was measured:
Assay in all cases: NCI-60 cell line screen, 48 h
786-0 renal = system: 786-0 renal
A498 renal = system: A498 renal
A549 NSCLC = system: A549 NSCLC
ACHN renal = system: ACHN renal
BT-549 breast = system: BT-549 breast
CAKI-1 renal = system: CAKI-1 renal
CCRF-CEM leukemia = system: CCRF-CEM leukemia
COLO 205 colon = system: COLO 205 colon
DU-145 prostate = system: DU-145 prostate
EKVX NSCLC = system: EKVX NSCLC
HCC-2998 colon = system: HCC-2998 colon
HCT-116 colon = system: HCT-116 colon
HCT-15 colon = system: HCT-15 colon
HL-60(TB) leukemia = system: HL-60(TB) leukemia
HOP-62 NSCLC = system: HOP-62 NSCLC
HOP-92 NSCLC = system: HOP-92 NSCLC
HS 578T breast = system: HS 578T breast
HT29 colon = system: HT29 colon
IGROV1 ovarian = system: IGROV1 ovarian
K-562 leukemia = system: K-562 leukemia
KM12 colon = system: KM12 colon
LOX IMVI melanoma = system: LOX IMVI melanoma
M14 melanoma = system: M14 melanoma
MALME-3M melanoma = system: MALME-3M melanoma
MDA-MB-231 breast = system: MDA-MB-231 breast
MDA-MB-435 = system: MDA-MB-435
MOLT-4 leukemia = system: MOLT-4 leukemia
NCI-H460 lung = system: NCI-H460 lung
NCI-H522 lung = system: NCI-H522 lung
NCI/ADR-RES ovarian = system: NCI/ADR-RES ovarian
OVCAR-3 ovarian = system: OVCAR-3 ovarian
OVCAR-4 ovarian = system: OVCAR-4 ovarian
OVCAR-5 ovarian = system: OVCAR-5 ovarian
OVCAR-8 ovarian = system: OVCAR-8 ovarian
PC-3 prostate = system: PC-3 prostate
RPMI-8226 leukemia = system: RPMI-8226 leukemia
RXF 393 renal = system: RXF 393 renal
SF-268 CNS = system: SF-268 CNS
SF-295 CNS = system: SF-295 CNS
SF-539 CNS = system: SF-539 CNS
SK-MEL-2 melanoma = system: SK-MEL-2 melanoma
SK-MEL-28 melanoma = system: SK-MEL-28 melanoma
SK-MEL-5 melanoma = system: SK-MEL-5 melanoma
SK-OV-3 ovarian = system: SK-OV-3 ovarian
SN12C renal = system: SN12C renal
SNB-19 CNS = system: SNB-19 CNS
SNB-75 CNS = system: SNB-75 CNS
SW-620 colon = system: SW-620 colon
T-47D breast = system: T-47D breast
TK-10 renal = system: TK-10 renal
U251 CNS = system: U251 CNS
UACC-257 melanoma = system: UACC-257 melanoma
UACC-62 melanoma = system: UACC-62 melanoma
UO-31 renal = system: UO-31 renal

## Cc1cc2ncc(-c3cc4ccccc4c(N4CCN(C)CC4)n3)nc2cc1C
786-0 renal
  GI50: 1.68 µM
  TGI: 3.57 µM
A498 renal
  GI50: 16.1 µM
  TGI: 31.6 µM
A549 NSCLC
  GI50: 81.6 µM
  TGI: > 100 µM
ACHN renal
  GI50: 2.14 µM
  TGI: 4.45 µM
BT-549 breast
  GI50: 14 µM
  TGI: 29.2 µM
CAKI-1 renal
  GI50: 1.62 µM
  TGI: 3.12 µM
CCRF-CEM leukemia
  GI50: 2.22 µM
  TGI: 5.93 µM
COLO 205 colon
  GI50: 1.87 µM
  TGI: 3.52 µM
DU-145 prostate
  GI50: 6.53 µM
  TGI: > 100 µM
EKVX NSCLC
  GI50: 33.7 µM
  TGI: > 100 µM
HCC-2998 colon
  GI50: 1.69 µM
  TGI: 3.2 µM
HCT-116 colon
  GI50: 1.67 µM
  TGI: 3.09 µM
HCT-15 colon
  GI50: 1.82 µM
  TGI: 3.6 µM
HL-60(TB) leukemia
  GI50: 1.55 µM
  TGI: 3.56 µM
HOP-62 NSCLC
  GI50: 21.2 µM
  TGI: 79.5 µM
HOP-92 NSCLC
  GI50: 2.42 µM
  TGI: 15.9 µM
HS 578T breast
  GI50: 12.7 µM
  TGI: 39.2 µM
HT29 colon
  GI50: 1.63 µM
  TGI: 3.29 µM
IGROV1 ovarian
  GI50: 4.81 µM
  TGI: 61.2 µM
K-562 leukemia
  GI50: 1.82 µM
  TGI: 3.57 µM
KM12 colon
  GI50: 2.34 µM
  TGI: 5.47 µM
LOX IMVI melanoma
  GI50: 1.81 µM
  TGI: 3.34 µM
M14 melanoma
  GI50: 1.75 µM
  TGI: 3.21 µM
MALME-3M melanoma
  GI50: 1.75 µM
  TGI: 3.42 µM
MDA-MB-231 breast
  GI50: 2.98 µM
  TGI: 10.3 µM
MDA-MB-435
  GI50: 1.79 µM
  TGI: 3.36 µM
MOLT-4 leukemia
  GI50: 2.32 µM
  TGI: 5.27 µM
NCI-H460 lung
  GI50: 1.87 µM
  TGI: 3.45 µM
NCI-H522 lung
  GI50: 11.6 µM
  TGI: 28.9 µM
NCI/ADR-RES ovarian
  GI50: 5.76 µM
  TGI: > 100 µM
OVCAR-3 ovarian
  GI50: 10.3 µM
  TGI: > 100 µM
OVCAR-4 ovarian
  GI50: 5.62 µM
  TGI: > 100 µM
OVCAR-5 ovarian
  GI50: 8.87 µM
  TGI: 49.2 µM
OVCAR-8 ovarian
  GI50: 2.83 µM
  TGI: 8.57 µM
PC-3 prostate
  GI50: 5.37 µM
  TGI: > 100 µM
RPMI-8226 leukemia
  GI50: 2.19 µM
  TGI: 5.33 µM
RXF 393 renal
  GI50: 2.01 µM
  TGI: 4.8 µM
SF-268 CNS
  GI50: 13.2 µM
  TGI: 55 µM
SF-295 CNS
  GI50: 14.2 µM
  TGI: 31.6 µM
SF-539 CNS
  GI50: 1.87 µM
  TGI: 3.98 µM
SK-MEL-2 melanoma
  GI50: 16 µM
  TGI: 31.2 µM
SK-MEL-28 melanoma
  GI50: 1.74 µM
  TGI: 3.19 µM
SK-MEL-5 melanoma
  GI50: 12.8 µM
  TGI: 29.4 µM
SK-OV-3 ovarian
  GI50: 36.6 µM
  TGI: > 100 µM
SN12C renal
  GI50: 6.07 µM
  TGI: 65.8 µM
SNB-19 CNS
  GI50: 20.2 µM
  TGI: 89.8 µM
SNB-75 CNS
  GI50: 11 µM
  TGI: 24 µM
SW-620 colon
  GI50: 1.85 µM
  TGI: 3.41 µM
T-47D breast
  GI50: 3.59 µM
  TGI: 15.4 µM
TK-10 renal
  GI50: 20 µM
  TGI: 44.1 µM
U251 CNS
  GI50: 2.11 µM
  TGI: 4.91 µM
UACC-257 melanoma
  GI50: 12.8 µM
  TGI: 26.4 µM
UACC-62 melanoma
  GI50: 1.89 µM
  TGI: 3.89 µM
UO-31 renal
  GI50: 4.35 µM
  TGI: 17.2 µM
